Experimental data taken from patent publication US12617759B2, “Modifier of four-membered ring derivative, preparation method and application thereof” (Shanghai Hansoh Biomedical Co., Ltd., priority 2019, dated 2026).

What was measured:
[1] = Stability in human liver microsome in vitro; type: in vitro ADME; conditions: for half-life at 1 μM / microsomal CLint at 1 μM: human liver microsomes, pH 7.4, 1 μM compound, NADPH/UDPGA; for half-life at 1 μM: read-out: Half life (t1/2); for microsomal CLint at 1 μM: read-out: Intrinsic clearance rate (CLint)
Protocol: (§1) To evaluate the metabolic stability of the compounds of the present invention in liver microsome in vitro.
(§2) Formulation of the working solution of the compound: 2 μL of the stock solution of the compound was added to 998 μL of phosphate buffer, and the final concentration was 20 μM.
(§3) 78.1 μL of 20 mg/mL microsome was diluted to 2.5 mL with 100 mM phosphate buffer and mixed well, and the final concentration was 0.625 mg/mL.
(§4) 33.3 mg of NADPH and 25.8 mg of UDPGA were weighed respectively, followed by the addition of 2 mL of 100 mM phosphate buffer. The final concentrations were 20 mM.
(§5) 1 mg of Alamethicin was weighed, to which 200 μL of DMSO was added to obtain a 5 mg/mL solution. 10 μL of this solution was added to 990 μL of phosphate buffer (pH 7.4), and the final concentration was 50 μg/mL.
(§6) 400 μL of the formulated liver microsome, 25 μL of the working solution of the compound (10 μM) and 25 μL of Alamethicin (50 μg/mL) were added to a 96-well plate successively, which was then pre-incubated at 37° C. for 10 min. 50 μL of the formulated NADPH/UDPGA was added to initiate the reaction, and the plate was incubated at 37° C. The total volume of the reaction system was 500 μL. The final contents of the components are as follows:
(§7) […] The resulting sample was centrifuged at 4000 g for 10 min, and the supernatant was collected for LC-MS/MS analysis.

[2] = biological target: T1, Human Dopamine D3 Receptor membrane (Homo sapiens, UniProt P35462); assay: Radioligand binding assay, dopamine D3 receptor ([3H]-methylspiperone)
T1 construct: purchased PerkinElmer ES-173-M400UA
Protocol: The objective of this test example is to determine the affinity of the compounds for dopamine D3 receptor.
(§8) 0.5 to 5 μL of the test compounds (0.005 nM to 100 nM, 10 concentrations in total) and 100 μL of buffer were added to a 96-well assay plate. 0.5 μL of cell membrane and 300 μL of buffer were added to each well. [^3H]-methylspiperone was added to the buffer, and the plate was incubated at 27° C. for 30 min. The […]-96 GF/B filter plate pre-incubated with 0.5% PEI for 1 h was washed twice with the buffer (1 mL/well). The cell membrane suspension was added to the […]-96 GF/B filter plate, washed 4 times, and incubated at 55° C. for 10 min. 40 μL of ULTIMA GOLD was added to each well, and liquid scintillation counting was carried out.
(§9) The CPM (Counts per minute) values were determined by TopCount. […] The 10 concentrations of the compound were from 100 nM to 0.005 nM after 3-fold dilution of the reaction system. The percent inhibition rate and ten-point concentration data were fitted to the parametric nonlinear logistic equation by using GraphPad prism to calculate the IC50 values of the compound.

5-HT2A receptor [3] = biological target: T2, 5-HT2A receptor (Homo sapiens, UniProt P28223); assay: Calcium ion mobility in cells stably expressing 5-HT2A receptors (Flp-In-CHO-5HT2A, FLIPR); type: cell-based; design: expressed in transfected cells; conditions: Flp-In-CHO-5HT2A stable pool, inhibition of 5HT response
Protocol: To determine the inhibitory effect of the compounds on 5-HT2A receptor.
3. […] Probenecid and BSA were added fresh on the day of the experiment. […] 4. Experimental Data Processing Method:
The calcium signal values were determined by FLIPR. The calculated output for each sampling time point in the experiment was the ratio of the 340/510 nm wavelength signals to 380/510 nm wavelength signals. The maximum minus minimum calculation was derived from the ratio signal curve. The percent inhibition rate and ten-point concentration data were fitted to the parametric nonlinear logistic equation by using GraphPad prism to calculate the IC50 values of the compound.

5-HT2A receptor [4] = biological target: T2, 5-HT2A receptor; assay: Radioligand binding assay, 5-HT2A receptor ([3H]-Ketanserin); design: purchased PerkinElmer; conditions: human 5-HT2A receptor membrane, read-out: 5HT-2A Binding IC50
Protocol: The objective of this test example is to determine the affinity of the compounds for 5-HT2A receptor.
as §8, with “[^3H]-Ketanserin” for “[^3H]-methylspiperone”
as §9

D3 receptor = biological target: T3, D3 receptor (Homo sapiens, UniProt P35462); assay: cAMP content in cells stably expressing D3 receptors (CHO-D3); type: cell-based; conditions: forskolin, agonistic activity
T3 construct: expressed in transfected cells; host or cells: CHO (CHO-D3, G418 selection)
Protocol: To determine the activation effect of the compounds on D3 receptor.
3. Experimental Method: • 1. Preparation of the buffer: 1*HBSS+20 mM HEPES+0.1% BSA+500 μM IBMX. • Complete medium: Ham's F12K+10% fetal bovine serum+1*penicillin-streptomycin+400 µg/mL G418. • 2. CHO-D3 cells were cultured in the complete medium at 37° C., 5% C02. After TrypLE digestion, the cells were resuspended in the experimental buffer, and seeded into a 384-well cell culture plate at a seeding density of 8000 cells per well. • 3. The experimental buffer (1*HBSS, 0.1% BSA, 20 mM HEPES and 500 μM IBMX) was prepared. The compound was diluted with the buffer. 2.5 μL of the compound solution was added to each well, and the plate was incubated at 37° C. for 10 minutes. The forskolin was diluted to 8 μM (8*) with the experimental buffer. 2.5 μL of the diluted 8*forskolin was added, and the plate was incubated at 37° C. for 30 minutes. cAMP-d2 and Anti-cAMP-Eu^3+ were thawed, and diluted by 20-fold with the lysis buffer. 10 μL of cAMP-d2 was added to the experimental well, followed by the addition of 10 μL of Anti-cAMP-Eu^3+. The reaction plate was centrifuged at 200 g for 30 s at room temperature, and left to stand at 25° C. for 1 h. Data was collected using Envision. 4. […]

[5] = Stability in dog liver microsome in vitro; type: in vitro ADME; conditions: for half-life at 1 μM / microsomal CLint at 1 μM: dog liver microsomes, pH 7.4, 1 μM compound, NADPH/UDPGA; for half-life at 1 μM: read-out: Half life (t1/2); for microsomal CLint at 1 μM: read-out: Intrinsic clearance rate (CLint)
Protocol: as §1, §2, §3, §4, §5, §6, §7

[6] = Stability in rat liver microsome in vitro; type: in vitro ADME, SD rat; conditions: for half-life at 1 μM / microsomal CLint at 1 μM: SD, rat liver microsomes, pH 7.4, 1 μM compound, NADPH/UDPGA; for half-life at 1 μM: read-out: Half life (t1/2); for microsomal CLint at 1 μM: read-out: Intrinsic clearance rate (CLint)
Protocol: as §1, §2, §3, §4, §5, §6, §7

T2 sequence (P28223 whole entry): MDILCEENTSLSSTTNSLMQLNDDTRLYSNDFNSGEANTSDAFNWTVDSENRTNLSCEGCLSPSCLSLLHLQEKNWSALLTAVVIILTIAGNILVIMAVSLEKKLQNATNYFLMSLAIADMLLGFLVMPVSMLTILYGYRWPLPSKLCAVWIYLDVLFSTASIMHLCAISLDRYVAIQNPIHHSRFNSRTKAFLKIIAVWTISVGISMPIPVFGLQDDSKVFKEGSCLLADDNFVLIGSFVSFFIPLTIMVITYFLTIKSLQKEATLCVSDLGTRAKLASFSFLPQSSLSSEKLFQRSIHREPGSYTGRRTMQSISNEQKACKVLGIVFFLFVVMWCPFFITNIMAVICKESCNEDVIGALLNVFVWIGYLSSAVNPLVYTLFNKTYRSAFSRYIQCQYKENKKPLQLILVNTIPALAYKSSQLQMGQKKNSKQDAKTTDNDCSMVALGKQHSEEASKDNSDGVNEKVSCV
T3 sequence (P35462 whole entry): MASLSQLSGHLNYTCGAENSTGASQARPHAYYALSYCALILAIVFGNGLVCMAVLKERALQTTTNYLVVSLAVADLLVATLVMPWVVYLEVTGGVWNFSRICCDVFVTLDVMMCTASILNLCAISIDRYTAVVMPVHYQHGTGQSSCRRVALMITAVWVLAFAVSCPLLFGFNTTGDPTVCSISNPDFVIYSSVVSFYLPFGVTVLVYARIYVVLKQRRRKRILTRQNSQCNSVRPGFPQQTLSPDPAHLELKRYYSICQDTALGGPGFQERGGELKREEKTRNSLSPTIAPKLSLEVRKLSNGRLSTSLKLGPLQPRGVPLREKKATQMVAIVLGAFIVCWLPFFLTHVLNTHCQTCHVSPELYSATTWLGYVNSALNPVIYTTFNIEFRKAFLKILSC
T1 sequence (P35462 whole entry): as above

For `CN(C)C(=O)NC1CC(CCN2CCN(c3cccc4sccc34)CC2)C1` (stereo not drawn) [Example 6, 3-(3-(2-(4-(Benzo[b]thiophen-4-yl)piperazin-1-yl)ethyl)cyclobutyl)-1,1-dimethylurea], the “Remaining (%, 120 min)” value [1] was 61.2%, the half-life at 1 μM [1] was 1.27 h and the microsomal CLint at 1 μM [1] was 45.4 µL/min/mg.
For `CC(C)(O)CC(=O)NC1CC(CCN2CCN(c3cccc(Cl)c3Cl)CC2)C1` (stereo not drawn) [Example 15, N-(3-(2-(4-(2,3-Dichlorophenyl)piperazin-1-yl)ethyl)cyclobutyl)-3-hydroxy-3-methylbutanamide], the “Remaining (%, 120 min)” value [1] was 79.5%, the half-life at 1 μM [1] was 3.16 h and the microsomal CLint at 1 μM [1] was 18.3 µL/min/mg.
With `O=C(NC1CC(CCN2CCN(c3cccc(Cl)c3Cl)CC2)C1)C1(O)CC1` (stereo not drawn) [Example 13, N-(3-(2-(4-(2,3-Dichlorophenyl)piperazin-1-yl)ethyl)cyclobutyl)-1-hydroxycyclopropane-1-carboxamide] the “Remaining (%, 120 min)” value [1] was 63.0%, the half-life at 1 μM [1] was 1.55 h and the microsomal CLint at 1 μM [1] was 37.2 µL/min/mg.
`CC(C)(O)C(=O)N[C@H]1C[C@H](CCN2CCN(c3cccc(Cl)c3Cl)CC2)C1` [Example 11A] showed an IC50 [2] of 0.95 nM, an IC50 (5-HT2A receptor [3]) of 39 nM and an IC50 (5-HT2A receptor [4]) of 41.5 nM. The EC50 (D3 receptor) was 0.4 nM.
With `O=C(N[C@H]1C[C@H](CCN2CCN(c3cccc(Cl)c3Cl)CC2)C1)C1(O)CC1` [Example 13A, N-(Trans-3-(2-(4-(2,3-dichlorophenyl)piperazin-1-yl)ethyl)cyclobutyl)-1-hydroxycyclopropane-1-carboxamide] the “Remaining (%, 120 min)” value [1] was 53.3%, the half-life at 1 μM [1] was 2.31 h and the microsomal CLint at 1 μM [1] was 10 µL/min/mg.
Work on `Cc1ncc(C(=O)N[C@H]2C[C@H](CCN3CCN(c4cccc(Cl)c4Cl)CC3)C2)o1` [Example 24A] yielded an IC50 [2] of 0.33 nM, an IC50 (5-HT2A receptor [3]) of 4.28 nM and an IC50 (5-HT2A receptor [4]) of 1.8 nM. For the same molecule, the EC50 (D3 receptor) was 1.7 nM.
With `Cc1cc(C(=O)N[C@H]2C[C@H](CCN3CCN(c4cccc(Cl)c4Cl)CC3)C2)on1` [Example 22A] the IC50 [2] was 0.34 nM, the IC50 (5-HT2A receptor [3]) was 4.37 nM and the IC50 (5-HT2A receptor [4]) was 1.35 nM. It also gave an EC50 (D3 receptor) of 0.9 nM.
With `O=C(N[C@H]1C[C@H](CCN2CCN(c3cccc(Cl)c3Cl)CC2)C1)c1ncco1` [Example 20A, N-(Trans-3-(2-(4-(2,3-dichlorophenyl)piperazin-1-yl)ethyl)cyclobutyl)oxazole-2-carboxamide] the “Remaining (%, 120 min)” value [5] was 29.2%, the half-life at 1 μM [5] was 1.18 h and the microsomal CLint at 1 μM [5] was 19.6 µL/min/mg. For the same molecule, the “Remaining (%, 120 min)” value [1] was 42.8%, the half-life at 1 μM [1] was 1.77 h and the microsomal CLint at 1 μM [1] was 13.1 µL/min/mg. The “Remaining (%, 120 min)” value [6] was 25.4%, the half-life at 1 μM [6] was 1 h and the microsomal CLint at 1 μM [6] was 23.1 µL/min/mg.
With `CN(C)C(=O)N[C@H]1CC[C@H](CCN2CCN(c3cccc(Cl)c3Cl)CC2)CC1` [Cariprazine, reference compound] the “Remaining (%, 120 min)” value [5] was 21.4%, the half-life at 1 μM [5] was 0.835 h and the microsomal CLint at 1 μM [5] was 27.7 µL/min/mg. For the same molecule, the “Remaining (%, 120 min)” value [1] was 34.4%, the half-life at 1 μM [1] was 1.29 h and the microsomal CLint at 1 μM [1] was 18 µL/min/mg. The “Remaining (%, 120 min)” value [6] was 19.1%, the half-life at 1 μM [6] was 0.878 h and the microsomal CLint at 1 μM [6] was 26.3 µL/min/mg.
